Data reported in ChEMBL document CHEMBL1275330, “Rational design, synthesis, and evaluation of new selective inhibitors of microbial class II (zinc dependent) fructose bis-phosphate aldolases” (J Med Chem, 2010).

Key:
Format in all cases: tissue-based
Conditions in all cases: Muscle tissue
[1] = Selectivity ratio of Km/ki for rabbit muscle […] Fba to Km/ki for Helicobacter pylori recombinant zinc dependent class 2 Fba
[2] = Selectivity ratio of Km/ki for rabbit muscle […] Fba to Km/ki for Candida albicans zinc dependent class 2 Fba
[3] = Selectivity ratio of Km/ki for rabbit muscle […] Fba to Km/ki for Mycobacterium tuberculosis zinc dependent class 2 Fba

| Compound | Ratio [1] | Ratio [2] | Ratio [3] |
| --- | --- | --- | --- |
| CCCCCCCCCCCC(=O)OCCCCN(O)C(=O)COP(=O)(O)O | 19 | 475 | 305 |
| O=C(COP(=O)(O)O)N(O)CCCO | 600 | 34000 | 20000 |
| O=C(COP(=O)(O)O)N(O)CCCOP(=O)(O)O | 23000 | 7500 | 28000 |
